Results reported in article PMC4721142, “Randomized controlled studies on the efficacy of antiarthritic agents in inhibiting cartilage degeneration and pain associated with progression of osteoarthritis in the rat” (Arthritis Research & Therapy, 2016).
Values joined by “and” are separate entries in the source; they are usually repeats but may differ in a detail not shown here. Equal entries are not always repeated.

Columns and labels:
[1] = system: NF-κB; settings: cited from earlier work
[2] = system: NF-κB; assay: TNF-α-stimulated NF-κB dual luciferase reporter assay in HeLa cells; format: cell-based
Procedure: NF-κB activity was assessed using a previously described dual plasmid reporter system. HeLa cells were transfected with NF-κB luciferase (Stratagene Products Division, Agilent Technologies, La Jolla, CA, USA) and pRLuc-N3 (PerkinElmer, Waltham, MA, USA) at an 8:1 ratio, respectively, in triplicate. […] NF-κB activity was measured 5 h later with a Dual-Glo Luciferase Assay (Promega, Madison, WI, USA) and an Omni plate reader (BMG Labtech, Cary, NC, USA). The ratio of firefly luciferase luminescence (NF-κB reporter) to Renilla luciferase luminescence (control) was normalized for the number of viable transfected cells. Data are reported as a ratio of activity of viable treated cells over the activity of cells not exposed to TNF-α or drug (fold stimulation above basal untreated levels of activity). The viability of HeLa cells with and without drug was also measured using a CellTiter-Glo luminescent viability assay (Promega). […]
NF-κB activity was assessed in HeLa cells that were transiently transfected with two reporter constructs as described in the manuscript. Agents were tested for their ability to block TNF- […]
Expression of the luciferase from the Renilla construct was used as a measure of viability, which was confirmed with a cytotoxicity assay (see later section).

[3] = system: RAW 264.7 cells; assay: RANKL-mediated osteoclastogenesis / matrix resorption (Osteologic) assay; format: cell-based, murine
Procedure: RAW 264.7 cells (American Type Culture Collection [ATCC], Manassas, VA, USA), a murine monocytic cell line that differentiates in the presence of RANKL, was used for measurements of osteoclastogenesis and osteoclast activity. Cells were amplified on nonadherent culture substratum in high-glucose Dulbecco’s modified Eagle’s medium (DMEM) containing 10 % fetal bovine serum (FBS) and penicillin-streptomycin in a 37 °C, 5 % CO2, humidified incubator and were passaged by manual dissociation. […] Plates were subsequently rinsed, bleached, dried, and analyzed for matrix degradation using a Nikon COOLSCOPE (Nikon Instruments, Melville, NY, USA). Matrix resorption was quantified using EclipseNet (Nikon Instruments)/Visiopharm (Visiopharm, Hørsholm, Denmark) software (see Additional file 1).
In Vitro Osteoclastogenesis
Osteoclastogenic activity was measured using BD osteologic plates and quantitation of the degree of bone matrix digestion on the plate surface. Images from the BD Osteologic assay used to […]
left pane depicts an example of a control well after removal of cells from matrix. Pseudocoloring of matrix (blue) and pits (green) is shown in the far right pane. A transparent overlay of the two images is shown in the center.
Figure 5 - Measurement of drug effects on osteoclastogenesis and osteoclast activity.
Comparisons were made between RANKL treated control wells and wells treated with both RANKL and […]
Agents were initially tested either during differentiation or post differentiation in the bone assay […]
(e.g., Figure 2, Sulfazalazine). […]
indicated (*/**: p < 0.05/0.01, unpaired t-test versus RANKL control). […]

[4] = Comparison of in vitro screens: overlapping effective and nontoxic range; settings: for Overlapping effective and nontoxic range: inhibits with minimal or no toxicity to synovium or cartilage, overlapping range if effective in more than one assay;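 as to all read-outs here: compares non-toxic ranges in synovial cells and chondrocytes with effective ranges against NFkB, MMP-13 and osteoclasts, giving their overlap as the predicted efficacy range in uM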
[5] = system: MMP-13; assay: MMP-13 ELISA on supernatants of TNF-α-treated chondrogenic pellets; format: cell-based, human
[6] = system: Normal human articular chondrocytes; assay: Cytotoxicity to chondrogenic pellets (CellTiter-Blue)
Procedure: Differentiated chondrogenic pellets were used both to test the ability of drugs to block MMP-13 activity and to test for drug toxicity. […] Supernatants were collected and analyzed for MMP-13 using an enzyme-linked immunosorbent assay (GE Healthcare Life Sciences, Little Chalfont, UK). Cytotoxicity to pellets was assessed using CellTiter-Blue (Promega).

[7] = system: SW982; assay: Synovial toxicity (CellTiter-Glo), with or without TNF-α
Procedure: Viability was measured with the CellTiter-Glo luminescent viability assay (Promega). […] To more accurately predict the effects of the drugs on osteoarthritic synovium, cells were tested with or without TNF-α (20 ng/ml; BioSource).
In Vitro Toxicity Testing with a Synovial Cell Line
Compounds were tested for synovial toxicity using SW982 cells alone or in the presence of TNF as

[8] = system: IKK-2; settings: reported; cited from earlier work
[9] = system: HeLa cells; assay: HeLa cell viability (CellTiter-Glo)
Procedure: NF-κB activity was assessed using a previously described dual plasmid reporter system. HeLa cells were transfected with NF-κB luciferase (Stratagene Products Division, Agilent Technologies, La Jolla, CA, USA) and pRLuc-N3 (PerkinElmer, Waltham, MA, USA) at an 8:1 ratio, respectively, in triplicate. […] NF-κB activity was measured 5 h later with a Dual-Glo Luciferase Assay (Promega, Madison, WI, USA) and an Omni plate reader (BMG Labtech, Cary, NC, USA). The ratio of firefly luciferase luminescence (NF-κB reporter) to Renilla luciferase luminescence (control) was normalized for the number of viable transfected cells. Data are reported as a ratio of activity of viable treated cells over the activity of cells not exposed to TNF-α or drug (fold stimulation above basal untreated levels of activity). The viability of HeLa cells with and without drug was also measured using a CellTiter-Glo luminescent viability assay (Promega).
In Vitro Hela Cell Drug Toxicity Testing
Potential drug toxicity was measured using a CTG assay and HeLa cells (Promega). Drugs not tested in
this assay were tested in either of the in vitro toxicity assays already presented (synovial or chondrocyte
Table 3- Drug toxicity measured using a CTG assay and HeLa cells.

[10] = system: MMT/MCLT rat model of OA; assay: MMT/MCLT trial 1 histopathology (same doses); format: in vivo; settings: low or only dose
Excerpt: For MMT/MCLT rat knee joints, sections were cut in 200-μm steps; stained with toluidine blue (also with a right and left half per section); and similarly analyzed for cartilage degeneration, proteoglycan loss, collagen damage, and osteophyte formation. Results were averaged across the three sections for an overall semiquantitative score. Regional differences across the tibial plateau were taken into consideration by dividing each section into three zones delineated using an ocular micrometer (outside, middle, and inside). Scores were based on the percentage of area affected within the zone.
Cartilage degeneration in the tibia was scored on a 5-point scale as detailed in the Methods section of Additional file 1. The total extent of degeneration of the tibial plateau was measured (in micrometers) and included an analysis of cell loss, proteoglycan loss, and collagen damage. Significant cartilage degeneration reflecting any degeneration extending through more than 50 % of the cartilage thickness was also measured. Collagen damage across the medial tibial plateau (the most severely affected section of the two halves) was also quantified.
Osteophytes and femoral cartilage degeneration were analyzed as detailed in Additional file 1. Scoring of the osteophytes and categorization into small, medium, and large was performed using an ocular micrometer. The actual osteophyte measurement (tidemark to farthest distance point extending toward the synovium) was also recorded. The femoral cartilage degeneration score and the three-zone sum of the tibial cartilage degeneration scores (mean of three levels) were summed to create a total cartilage degeneration score. The mean osteophyte score for each joint was added to this value to create a total joint score. […]
Histopathology MMT/MCLT Model

[11] = system: MMT/MCLT rat model of OA; assay: MMT/MCLT trial 1 weight bearing (daily morphine 10 mg/kg, tacrolimus 0.3 or 0.6 mg/kg, fluocinolone 5 or 10 μg/kg, clonidine 100 μg/kg, alendronate 10 μg/kg i.p.; curcumin, withaferin 50 mg/kg p.o.); format: in vivo; settings: low or only dose
Procedure: (§1) Weight bearing (WB; incapacitance) was measured five times per day, once per week, using a Linton incapacitance meter (Stoelting Co., Wood Dale, IL, USA). Rats were acclimated to the meter before study initiation, and, similarly, immediately before WB, the animals were placed in the meter and allowed to acclimate for 2–5 minutes. Each hind paw was placed on a separate force plate so that the force exerted by each side could be averaged over a 5-second interval, and the mean of three readings was taken for each data point. Right paw force was compared with that on the left side for each group to confirm that animals were displaying incapacitance and/or pain behavior. Differences in force (left minus right) and right paw force as a percentage of the total force exerted by both paws were determined and compared between groups.
Following isoflurane anesthesia, the medial collateral ligament was transected just below its attachment to the meniscus in the right knee. The meniscus was cut at its narrowest point away from the ossicles so as not to damage the tibial surface and to ensure that the anterior and posterior meniscus halves were freely movable. […] In trial 2, drugs were administered IA weekly beginning 1 week following surgery. Three weeks postsurgery, animals were humanely killed and their right knees were collected for histopathology. All studies were conducted in accordance with the International Association for the Study of Pain Guidelines and were approved by the Bolder BioPATH IACUC (Boulder, CO, USA) in compliance with regulations before study initiation (IACUC protocol BBP03-006). Those running the studies were blinded to the treatments. See Additional file 1 for further details.
Isoflurane and the right knee area prepared for surgery. A skin incision was made over the medial aspect of the knee and the medial collateral ligament was exposed by blunt dissection and then transected. The medial meniscus was cut through the full thickness to simulate a complete tear and the skin was then closed with suture.
All pharmaceutical agents were prepared and stored as recommended by the supplier. Daily drug preparations were made fresh from stock solutions. […]
In Trial 2 drugs were […]
administered IA weekly beginning one week following surgery. […]
were delivered by gavage and were prepared in 0.3% Methyl Cellulose.
WB was measured five times a day, once a week, using a Linton incapacitance meter (Stoelting Co.) to assess pain behavior. Rats were acclimated to the incapacitance meter prior to study initiation.
Similarly, immediately prior to WB animals were placed in the incapacitance meter and allowed to acclimate for 2-5 minutes. Each hind paw was placed on a separate force plate so that the force exerted by each side could be averaged over a 5 second interval and the mean of three readings taken for each data point. Right paw force was compared to left for each group to confirm that animals were displaying incapacitance / pain behavior. Difference in force (left minus right) and right paw force as a percentage of the total force exerted by both paws were determined and compared between groups. Three weeks after surgery, animals were humanely euthanized and right knees collected for histopathology evaluation.
Figure 2. MMT/MCLT Trial Timeline […]
MMT/MCLT Dosing (once/day)
The study design and animal usage was approved by Bolder BioPATH’s Institutional Animal Care and Use Committee (IACUC) for compliance with regulations prior to study initiation (IACUC […]
Labs. Animals were identified by a distinct mark at the base of the tail delineating group and animal number. After randomization, all cages were labeled with protocol number, group numbers, and animal numbers with appropriate color-coding (see protocol).

[12] = system: MIA rat model of OA; assay: MIA trial 1 weight bearing (daily s.c. clonidine 0.1, fluocinolone 0.002, morphine 6 mg/kg); format: in vivo
Procedure: as §1
Following isoflurane anesthesia, 50 μl (2 mg) of MIA was injected into the synovial space of the left knee. Animals were randomly assigned to groups, and pain behavior was assessed 7, 14, 21, and 28 days following MIA injection and intervention using WB with the Stoelting incapacitance meter (trial 1) or the dRS test (trials 2 and 3). […] Animals received MIA treatment and then saline control or therapeutic. […] Histopathology was performed at each time point and at study termination. All studies were conducted in accordance with the International Association for the Study of Pain Guidelines and were approved by the Algos Therapeutics, Inc. Institutional Animal Care and Use Committee (IACUC) before initiation. Those running the studies were blind to the treatments. See Additional file 1 for further details. […]
dosing were housed three per cage. Animals had free access to food and water and were maintained […]
The animal colony was maintained at approximately 21 °C. All experiments were conducted in accordance with the International Association for the Study of Pain Guidelines.

O=C1C(=Cc2ccccc2F)CNCC1=Cc1ccccc1F [Curcumin-14, 3,5-bis(2-flurobenzylidene)piperidin-4-one]
times more potent than curcumin ([1]; reportedly): Reportedly 10 times more potent than curcumin Inhibits NF-κB by inhibiting IκB kinase (IKK) [82] Potent anticarcinogenic activity inducing death of lung, breast, ovarian, and cervical cancer cells [82]
Effective range against NFkB [2]: ≥ 2.5 µM
Effective range against Osteoclasts [3]: Not effective
Non-toxic & predicted range of efficacy [4]: 2.5 to 10 µM
Overlapping effective and nontoxic range [4]: 2.5 to 10 µM
Effective range against MMP-13 [5]: ≥ 0.625 µM

NC(=O)Nc1sc(-c2ccccc2)cc1C(N)=O [IKK inhibitor VI, (5-Phenyl-2-ureido)thiophene-3-carboxamide]
Non-toxic range (Chondrocyte) [6]: 0.23 to 15.6 µM
Effective against NF κβ (p<0.05) [2]: 0.23 to 15.3 µM
Effective range against NFkB [2]: ≥ 0.95 µM
Effective range against Osteoclasts [3]: ≥ 0.5 µM
Non-toxic range (Synovial) [7]: 0.028 to 0.25 µM
Non-toxic & predicted range of efficacy [4]: 0.95 to 4.0 µM
Overlapping effective and nontoxic range [4]: 0.24 to 15.2 µM
Effective range against MMP-13 [5]: ≥ 0.24 µM
IC50 [8]: 13 to 18 nM
Non-toxic concentrations [9]: 0 to 0.9 M
Toxic concentrations (p<0.05) [9]: 1.9 to 3.83 µM

CN1CC[C@]23c4c5ccc(O)c4O[C@H]2[C@@H](O)C=C[C@H]3[C@H]1C5 [Morphine]
Bone score ([10]; mean): 3.63
Depth ratio any matrix change, mean ([10]; mean): 0.34
Depth ratio any matrix change, zone 2 ([10]; mean): 0.11
Femoral cartilage degeneration score ([10]; mean): 2.33 and 2.33 ± 0.66
Tibial cartilage degeneration score, 3-zone total ([10]; mean): 6.21
Tibial cartilage degeneration score, zone 1 ([10]; mean): 4.25
Tibial cartilage degeneration score, zone 2 ([10]; mean): 1.92
Tibial cartilage degeneration score, zone 3 ([10]; mean): 0.04
Tibial cartilage degeneration width, significant ([10]; mean): 666.67 µm
Tibial cartilage degeneration width, total ([10]; mean): 1279.17 µm
Tibial osteophyte measure ([10]; mean): 573.75 µm
Tibial osteophyte score ([10]; mean): 4.42
Total joint score ([10]; mean): 12.96 and 12.96 ± 0.89
Total joint score w/o femur ([10]; mean): 10.63
% decrease, bone score ([10]; vs saline group): -12%
% decrease, depth ratio mean ([10]; vs saline group): 5%
% decrease, depth ratio zone 2 ([10]; vs saline group): 42%
% decrease, femoral cartilage degeneration score ([10]; vs saline group): -27%
% decrease, osteophyte measure ([10]; vs saline group): -12%
% decrease, osteophyte score ([10]; vs saline group): -13%
% decrease, significant degeneration width ([10]; vs saline group): 8%
% decrease, tibial score 3-zone total ([10]; vs saline group): 5%
% decrease, tibial score zone 1 ([10]; vs saline group): 1%
% decrease, tibial score zone 2 ([10]; vs saline group): 13%
% decrease, tibial score zone 3 ([10]; vs saline group): 0%
% decrease, total degeneration width ([10]; vs saline group): 3%
% decrease, total joint score ([10]; vs saline group): -5%
% decrease, total joint score w/o femur ([10]; vs saline group): -2%
Weight bearing, hours with significant effect ([11]; day 7): 1 h
Weight bearing, hours with significant effect ([11]; day 21): 3,5 h
Weight bearing, hours after dosing with significant difference ([12]; day 14): 1 h
Weight bearing, hours after dosing with significant difference ([12]; day 21, BL baseline): BL, 1, 3

COc1ccc(/C=C/c2ccccc2F)cc1 [NF-κB activation inhibitor IV, (E)-2-fluoro-4′-methoxystilbene]
fold more potent than resveratrol at inhibiting NF-κB [1]: Experimentally used as an anti-inflammatory but not an antioxidant 130-fold more potent than resveratrol at inhibiting NF-κB [94]
